# Source: PubChem BioAssay AID463229 (Broad Institute, 2010)
# Several values for one entry are separate records, joined by “and”; a condition that tells them apart may be missing. Equal entries are not always repeated.
# System: INS-1E rat beta cells, no cytokines, CellTiter-Glo ATP, 48 h
# Experiment: ATP level change in INS-1E without cytokines, dose response, counter-screen for beta-cell apoptosis protection project, INS-1E rat cells, ATP luminescence, cherry pick (AID 463229)
row,SMILES,AC50
1,O=C(/C=C/c1ccc(-c2ccccc2)cc1)NCc1cccnc1,9.36 µM
2,COc1ccc(C(=O)N/N=C/c2cc(Br)ccc2O)cc1OC,7.2 µM
3,COc1ccc(C(=O)C/C(=C\C(=O)c2ccc(C)cc2)c2ccccc2)cc1,7.67 µM
4,O=C(NNC(=S)Nc1ccc(Cl)c(Cl)c1)c1ccccn1,4.35 µM
5,Cc1cccc2sc(NNC(=O)c3ccc(S(=O)(=O)N4CC(C)CC(C)C4)cc3)nc12 (stereo not drawn),6.52 µM
6,CCN1c2ccccc2NC2N=C(OC)C(c3ccccc3)C21 (stereo not drawn),13.1 µM
7,Cc1cc(N/N=C/c2ccc(F)cc2)nc(-n2nc(C)cc2C)n1,20.1 µM
8,COc1cccc(C(=O)N/N=C(/c2ccccc2)c2ccccn2)c1,3.73 µM
9,Cc1ccc(/C=N/Nc2ccnc3cc(Cl)ccc23)c(C)c1,13.4 µM
10,Oc1ccc(N=Nc2ccccc2C(F)(F)F)c2cccnc12,3.18 µM
11,CCC[C@@H](CN1CCC[C@H]1CN1C(N)=NC[C@@H]1Cc1ccccc1)N1C[C@@H]([C@H](C)CC)N(CCCC2CCCC2)C1=N,7.72 µM
12,CC(C)OCCCNc1ncnc2c1[nH]c1ccc(F)cc12,2.46 µM
13,COC(=O)c1sc(-c2ccc(C(C)(C)C)cc2)cc1NC(=O)/C=C/C(=O)O,13.8 µM
14,COc1ccc(-c2c[n+]3c(n2-c2ccc(C)cc2)CCCCC3)cc1,0.317 µM
15,CCCC(=O)NC(c1ccc(Cl)cc1Cl)c1ccc2cccnc2c1O (stereo not drawn),2.3 µM
16,CCCCCCCCCCOC(=O)Cn1c(COc2ccccc2C)[n+](C)c2ccccc21,3.22 µM
17,CNC[C@@H](CC1CCCCC1)NC[C@H](CC(C)C)NCCc1cccc(C(F)(F)F)c1,4.4 µM
18,COc1ccccc1-n1c(-c2ccccc2)c[n+]2c1CCc1ccccc1-2,2.16 µM and 3.41 µM
19,COc1ccc(CC(=O)Nc2ccncc2Cl)cc1,10.6 µM
20,O=C(COc1ccc(Cl)cc1)Nc1ccc(C(=O)NCc2cccnc2)cc1,0.236 µM
21,O=C(CCCc1nc(-c2ccc(Cl)cc2)no1)NC1CCCC1,13.5 µM
22,N=c1c2c(n(Cc3cccc(Cl)c3)c3c1CCC3)CCCC2,7.28 µM
23,CCN1CCN(Cc2ccc(NC(=O)c3cc(NC(=O)c4cnn(-c5ccccc5)c4N)cc(OC)c3)cc2C(F)(F)F)CC1,15.3 µM

row,SMILES,AC50
1,CC1(C)CC(N2CCN(c3ccccc3)CC2)=CC(=[N+]2CCCC2)C1,1.79 µM
2,O=S(=O)(c1cc(F)ccc1F)N1CCN(c2ncnc3ccccc23)CC1,5.01 µM
3,O=C(NNC(=O)C12CC3CC(CC(C3)C1)C2)c1ccccn1,12.7 µM
4,Cc1ccc(-c2cn(-c3ccc(OC(F)F)cc3)c3[n+]2CCCCC3)cc1,1.45 µM
5,CCn1c(=O)c(C(=O)Nc2nc3ccccc3[nH]2)c(O)c2ccccc21,6.03 µM
6,CNC1=C(N(C(C)=O)c2ccc(Br)cc2)C(=O)c2ccccc2C1=O,0.943 µM
7,Cc1cc(C)n(-c2nc(Nc3ccccc3C(F)(F)F)nc(-n3nc(C)cc3C)n2)n1,6.87 µM
8,CC(C)n1cnc2c(NCc3ccccc3)cc(N[C@H](C)CO)cc21,13.7 µM
9,CN(c1ccccc1)S(=O)(=O)c1ccc(NC(=O)c2nc(S(C)(=O)=O)ncc2Cl)cc1,7.32 µM
10,C#CCOCCOCCOCCNc1nc(N2CCN(C(=O)CCCCCCCCCCNC(=O)[C@H]([C@@H](C)CC)n3cc(CCCCN=C(N)N)nn3)CC2)nc(N2CCN(C(=O)CCCCCCCCCCNC(=O)[C@H](CO)n3cc(CCCCCN)nn3)CC2)n1,7.67 µM
11,COc1cccc(-c2nc(-c3ccc(NC(=O)c4cccnc4)cc3)no2)c1,2.14 µM
12,CC(=O)c1ccc(NC(=S)NCc2cccnc2)cc1,5.53 µM
13,Clc1ccc(OCCN2CCN(c3ncnc4sccc34)CC2)cc1,0.726 µM
14,CCC(C)Nc1nc(-c2ccccn2)nc2ccccc12 (stereo not drawn),9.01 µM
15,O=C(Nc1ccc([N+](=O)[O-])cc1)Nc1nc(-c2ccc(Cl)s2)cs1,1.88 µM
16,Cc1ccccc1/C=N/Nc1ccnc2cc(Cl)ccc12,6.91 µM
17,CCCC(=O)NC(c1ccc(N(C)C)cc1)c1ccc2cccnc2c1O (stereo not drawn),2.08 µM
18,COc1ccc(-c2csc(NC(=O)C3CCN(c4ncnc5sc(C)c(C)c45)CC3)n2)cc1OC,4.88 µM
19,O=C(NC(NC(=S)Nc1ccccc1)C(Cl)(Cl)Cl)c1cccc(Cl)c1 (stereo not drawn),13.9 µM
20,C/C(=N/NC(=O)CN(c1ccccc1)S(=O)(=O)c1ccccc1)c1ccccc1O,10.2 µM
21,CC(=O)c1cccc(NS(=O)(=O)c2ccc(N/C=C/C(=O)c3ccc(F)cc3)cc2)c1,5.02 µM
22,CCCSc1nsc(NC(=O)Nc2ccc(F)cc2F)n1,6.99 µM
23,CCCCCCCCCCOC(=O)Cn1c(COc2ccc(OC)cc2)[n+](C)c2ccccc21,4.96 µM and 3.95 µM

row,SMILES,AC50
1,Cc1ccc(Nc2cc(C)nn2-c2nc(C)cc(=O)[nH]2)cc1,1.57 µM
2,CCCCCCCCCCCCCCCC[N+](C)(C)CC,6.57 µM
3,O=C(NCc1cccnc1)c1ccc([N+](=O)[O-])cc1,5.86 µM
4,O=C(CCl)N(c1ccccc1)C1CCCCC1,5.56 µM
5,CCN(CC)CCOC(=O)c1ccc(N/C=C(/C#N)c2nc(-c3ccc4c(c3)OCO4)cs2)cc1,14.2 µM
6,C#CCOCCOCCOCCNc1nc(N2CCN(C(=O)CCCCCCCCCCNC(=O)Cn3cc(CCCCCN)nn3)CC2)nc(N2CCN(C(=O)CCCCCCCCCCNC(=O)[C@H]([C@@H](C)CC)n3cc(CCCCN=C(N)N)nn3)CC2)n1,8.89 µM
7,O=C(CSC1=NCCS1)Nc1ccnc2ccccc12,12.5 µM
8,Nc1nonc1-n1nnc(C(=O)N/N=C/c2cc(Cl)ccc2O)c1CN1CCCCCC1,10.5 µM
9,O=C(CC(O)(C(F)(F)F)C(F)(F)F)Nc1ccc(Cl)c(Cl)c1,2.73 µM
10,CCCCCCCCNc1ncnc2ccccc12,0.384 µM
11,Cc1ccc2nc(N(CCCN(C)C)C(=O)c3ccc(S(=O)(=O)N4CCc5ccccc5C4)cc3)sc2c1,6.99 µM
12,CCCCCCn1c(=O)c(C(=O)Nc2ncccc2C)c(O)c2ccccc21,5.5 µM
13,Cc1cc(OCc2nc(-c3ccc(NC(=O)c4cccnc4)cc3)no2)ccc1Cl,1.16 µM
14,COc1cc(NC(=O)c2ccc([N+](=O)[O-])o2)ccc1NC(=O)c1cccs1,15.2 µM
15,CCN1/C(=C\C=C\C2=[N+](CC)c3ccccc3C2(C)C)C(C)(C)c2ccccc21,< 0.195 µM
16,O=C(Nc1nc(NC(=O)c2ccco2)n(-c2ccccc2)n1)c1ccccc1,6.83 µM
17,COc1ccc(-c2ccc3c(c2)S(=O)(=O)c2cccc(C(=O)NCCOc4ccccc4Cl)c2C3=O)cc1OC,3.5 µM
18,COc1ccc2c(c1)[nH]c1c(N3CCN(Cc4ccc5c(c4)OCO5)CC3)ncnc12,3.45 µM
19,CC(C)c1ccc2c(c1)C(N1CCNCC1)Cc1ccc(F)cc1S2 (stereo not drawn),14.6 µM
20,O=C(C(Cl)Cl)N1c2ccccc2OCC1c1ccccc1 (stereo not drawn),8.31 µM
21,O=[N+]([O-])c1cccc(-c2cn3nc(-c4ccccc4)c(-c4ccccc4)nc3n2)c1,10 µM
22,CCOc1ccc(-c2cc(C(=O)NCCCn3ccnc3)c3cc(Br)ccc3n2)cc1,12.6 µM
